From US6194408A, “Triazineone compounds for treating diseases due to Sarcocystis, Neospora and Toxoplasma” (Bayer Corporation, priority 1998, dated 2001)

Legend:
Sarcocystis neurona = test: Microtiter Monolayer Disruption Assay (MMDA), inhibition of BT cell destruction by S. neurona; format: cell-based; conditions: 10 μg/mL, read-out: Percent Inhibition of Cell Destruction
Description: (§1) In order to determine the scope of protection provided by Ponazuril, in vitro testing was conducted. The following strains of parasites were evaluated for their sensitivity to this compound: Strain SN3 of Sarcocystis neurona; strain SF1 of Sarcocystis falcatula; strain RH of Toxoplasma gondii; and the NC-1 strain of Neospora caninum. Ponazuril was tested at concentrations (1 μg/mL and 10 μg/mL).
(§2) Bovine turbinate (BT) cells were used for all in vitro studies. Cells were grown to confluency in 25 cm^2 flasks in RMPI 1640 media supplemented with 10% v/v fetal bovine serum (FBS), 100 Units penicillin (G/mL), […] and 5×10^-2 mM 2-mercpatoethanol. After cell confluence was obtained, cells were maintained in the same media with reduced FBS (2% v/v). Cell cultures were incubated at 37° C. in a humidified atmosphere containing 5% carbon dioxide and 95% air. […]
(§3) The assay used to determine the effectiveness of Ponazuril was the Microtiter Monolayer Disruption Assay (MMDA). […] Flat bottomed 96-well microtiter plates were inoculated with BT cells and the resulting monolayers were used to determine the effects of Toltrazuril and Ponazuril on merozoite production as measured by CPE (plaque formation). […]

Toxoplasma gondii = test: Microtiter Monolayer Disruption Assay (MMDA), inhibition of BT cell destruction by T. gondii; format: cell-based; conditions: 1.0 μg/mL, read-out: Percent Inhibition of Cell Destruction
Description: as §1, §2, §3

[1] = system: Bovine turbinate (BT) cells; format: cell-based; conditions: uninfected agent treated BT cells
Description: Bovine turbinate (BT) cells were used for all in vitro studies. Cells were grown to confluency in 25 cm^2 flasks in RMPI 1640 media supplemented with 10% v/v fetal bovine serum (FBS), 100 Units penicillin (G/mL), […] and 5×10^-2 mM 2-mercpatoethanol. After cell confluence was obtained, cells were maintained in the same media with reduced FBS (2% v/v). Cell cultures were incubated at 37° C. in a humidified atmosphere containing 5% carbon dioxide and 95% air.
The assay used to determine the effectiveness of Ponazuril was the Microtiter Monolayer Disruption Assay (MMDA). This assay was used to determine if the parasites or compound were toxic for BT cells. Flat bottomed 96-well microtiter plates were inoculated with BT cells and the resulting monolayers were used to determine the effects of Toltrazuril and Ponazuril on merozoite production as measured by CPE (plaque formation). […]

[2] = Safety and effectiveness of a single high dose; format: in vivo; conditions: doses as high as 100 mg/Kg body weight
Description: For the single high dose treatment the triazineone is administered in pharmaceutically effective amounts that are greater than 10 mg/Kg and up to about 100 mg/Kg. It is a distinct feature of the invention the compounds of this invention can be non-toxic, thus they can be administrated at high dose levels. The advantage of the high dose administration resides in the fact repeated doses are not required.

[3] = Cerebral spinal fluid drug levels / passage of blood-brain barrier after repeated doses of Toltrazuril in horses; format: in vivo; conditions: horses
Description: This experiment was conducted in order to determine whether triazineones such as Toltrazuril can pass the blood-brain barrier. Normal horses were divided into three groups of three horses per group. Group 1 horses received Toltrazuril administered orally as a 5% suspension at a dose level of 2.5 mg/Kg. Group 2 horses received Toltrazuril administered orally as a 5% suspension at a dose level of 5.0 mg/Kg. Group 3 horses received Toltrazuril administered orally as a 5% suspension at a dose level of 7.5 mg/Kg. The dosing was repeated daily for 10 days. Blood samples were drawn at 48, 96 and 240 hours and the concentration of Toltrazuril, Toltrazuril sulfoxide and Ponazuril in the serum was measured. Ten days after the start of the treatment (Day 10), a sample of cerebral spinal fluid was removed from each horse and the concentrations of Toltrazuril, Toltrazuril Sulfoxide and Ponazuril were again measured in these samples. The concentrations of Toltrazuril, Toltrazuril Sulfoxide and Ponazuril in the serum and cerebral spinal fluid are reported in TABLES 5a and 5b.

Neospora caninum NC-1 = test: Microtiter Monolayer Disruption Assay (MMDA), inhibition of BT cell destruction by N. caninum; format: cell-based; conditions: 1.0 μg/mL, read-out: Percent Inhibition of Cell Destruction
Description: as §1, §2, §3

EPM-Infected Horses = test: Response of EPM-infected horses to treatment (clinical score); format: in vivo
Description: The compound was formulated into a paste using Ponazuril as a 15% active ingredient (a.i.) as described in EXAMPLE 1. It was administered to horses already diagnosed with EPM once a day for 28 days at a dose rate between 2.5 mg/Kg and 10 mg/Kg.
Naturally occurring clinical cases of EPM were well characterized by signalment and laboratory diagnosis. The diagnosis used for incorporation of EPM-positive horses into this trial was as follows: Confirmed asymmetrical neurological deficit as determined by a standardized neurological examination, to include radiography, indicative of EPM; Positive Western Blot for Sarcocystis neurona IgG; Red Blood Cell count below 500 cells/mL; CSF indices--Total Protein <90, IgG index >0.3. AQ quotient <2.2.
Additional requirements were that the horses were not suffering from diseases other than EPM. Therefore, they had to meet the following criteria: Negative CSF (<1:4) for EHV-1; Normal serum values for Vitamin E (.2.0 μg/mL); Lack of seizure disorders; Lack of behavior disorders.
Diagnosed horses were randomly assigned to groups. Group 1 horses received the paste formulation daily at a dose rate of 5mg/Kg whereas Group 2 horses received the paste formulation daily at a dose rate of 10 mg/Kg. The treatment dose was based on body weight. The horses were evaluated for a period of 90 days (approximately 60 days after discontinuation of treatment) in order to determine that treatment was indeed effective. The response to treatment was scored using the following system: 1) 0=complete success-clinically normal with a negative CSF; 2) 1=Deficit just detected at a normal gait; 3) 2=Deficit easily detected and exaggerated by backing, turning, swaying, jaw loin pressure and neck extension; 4) 3=Deficit very prominent on walking, Facial turning, loin pressure or neck extension; 5) 4=Stumbling, tripping and falling down spontaneously; 6) 5=Recumbent, unable to rise. An improvement of one (1) unit in the score was considered a significant improvement.

Sarcocystis falcatula = test: Microtiter Monolayer Disruption Assay (MMDA), inhibition of BT cell destruction by S. falcatula; format: cell-based; conditions: 1 μg/mL, read-out: Percent Inhibition of Cell Destruction
Description: as §1, §2, §3

[4] = Pharmacokinetics of a single oral dose of Toltrazuril in horses (blood levels); format: in vivo; conditions: horses receiving single oral 10 mg/kg Toltrazuril
Description: A pharmacokinetic study was conducted in horses comparing blood levels of Toltrazuril, Ponazuril and Toltrazuril Sulfoxide at various times post a single dose of Toltrazuril. All horses received a single dose of 10 mg/kg, which was administered orally as a suspension. Blood samples were drawn at the time of treatment (0) and at 0.25, 0.5, 1, 2, 4, 6, 12, 24, 48 and 72 hours post treatment. […] This was an indication that Ponazuril, alone, would produce acceptable blood levels that are envisioned to pass the blood-brain barrier, a characteristic required to treat neurological diseases such as those caused by Sarcocystis neurona, Toxoplasma gondii, Neospora caninum and Neospora heugesi.

[5] = after treatment with Toltrazuril

With `Cc1cc(-n2c(=O)[nH]c(=O)n(C)c2=O)ccc1Oc1ccc(S(=O)(=O)C(F)(F)F)cc1` [Ponazuril] the inhibition at 10 µg/mL (Sarcocystis neurona) was 100%, the inhibition at 1 µg/mL (Toxoplasma gondii) was 100% and the “Toxicity to BT cells” value [1] was “not toxic to the BT cells”. The Safety and effectiveness [2] was “both safe and effective”, the “Crossing of the blood-brain barrier” value ([3]; after oral Toltrazuril daily for 10 days) was “effectively cross the blood-brain barrier” and the “Concentration in cerebral spinal fluid relative to that of Toltrazuril” value [3, 5] was “essentially equivalent to the concentration of Toltrazuril itself”. For the same compound, the “Crossing of the blood-brain barrier compared with Toltrazuril” value [3, 5] was “crosses this barrier more effectively than does Toltrazuril”, the inhibition at 1 µg/mL (Neospora caninum NC-1) was 100% and the “Horses demonstrating acceptable improvement” value (EPM-Infected Horses; 5 mg/Kg dose, eight of nine horses) was 88.9%. The TOTAL clinical score (EPM-Infected Horses; 5 mg/Kg group, Day 0 (baseline)) was 17, the TOTAL clinical score (EPM-Infected Horses; 5 mg/Kg group, Day 28) was 13 and the TOTAL clinical score (EPM-Infected Horses; 5 mg/Kg group, Day 90) was 6. For the same compound, the “Horses showing significant improvement in clinical score” value (EPM-Infected Horses; 10 mg/Kg group, 28 days, by day 90 post start of treatment) was 100%, the TOTAL clinical score (EPM-Infected Horses; 10 mg/Kg group, Day 0 (baseline)) was 19 and the TOTAL clinical score (EPM-Infected Horses; 10 mg/Kg group, Day 28) was 15. The TOTAL clinical score (EPM-Infected Horses; 10 mg/Kg group, Day 90) was 4, the “Improvement in total scores, Group 1 (5 mg/Kg) versus Group 2 (10 mg/Kg)” value (EPM-Infected Horses; EPM horses, 5 vs 10 mg/Kg) was “approximately equivalent” and the “Effectiveness for active treatment of EPM” value (EPM-Infected Horses; at either 5 mg/Kg or 10 mg/Kg, horses) was “effective for the active treatment of EPM in horses”. For the same compound, the inhibition at 1 µg/mL (Sarcocystis falcatula) was 100% and the “Levels in serum / bloodstream (in words)” value [4] was “relatively high levels”.
